The results in this text go back to patent US8779158B2, “Trisubstituted pyrazoles as acetylcholine receptor modulators” (Janssen Pharmaceutica NV, priority 2008, dated 2014).

Structures are written as SMILES.

One test concerns the target T1, hα7-wt nAChR (Homo sapiens, UniProt P36544).
T1 construct: expressed in transfected cells
Kind of test: Ca2+ flux imaging (FDSS) (Protocol B), potentiation of the choline response. Format: cell-based. Particulars: Ca2+ assay as described in D.1; for EC50: "<5" = activity did not reach a top plateau at maximal concentration; for Emax: read-out: % Efficacy. As to the method: Ca^2+ Flux Imaging (FDSS) (Protocol B)
• Hanks buffered saline solution (HBSS, Invitrogen, Belgium), supplemented with 10 mM HEPES (Invitrogen, Belgium), CaCl2 to a final concentration of 5 mM, 0.1% Bovine serum albumin (Sigma-Aldrich NV, Belgium). b) Calcium-Sensitive Dye—Fluo-4AM • Fluo-4AM (Molecular Probes, USA) was dissolved in DMSO containing 10% Pluronic acid (Molecular Probes, USA) to give a stock solution which was diluted in assay buffer supplemented with 5 mM probenicid (Sigma, Aldrich NV, Belgium) to give a final concentration of 2 μM. c) 384-Well Plates • Black 384 well plate black/clear plates, PDL pre-coated (Corning, Incorporated, USA) d) Calcium Flux Measurement • A Functional drug screening system (FDSS, Hamamatsu) was used to measure intracellular free-calcium flux signals. Method
Monolayers of hα7-wt nAChR-expressing cells were grown in multi-well plates, in particular black-sided, transparent bottomed 384 well plates coated with poly-D-lysine for 24 hours prior to loading with a fluorescent calcium indicator, in a particular embodiment loading with fluo-4AM for up to 120 minutes.
PAM activity was detected in real time by applying the compounds to be tested to the loaded cells along with a α7 nicotinic receptor agonist during constant monitoring of cellular fluorescence in a FDSS. Compounds giving peak fluorescent responses greater than the response due to agonist alone, were considered to be α7 nAChR PAM's. In a particular embodiment, the α7 nicotinic receptor agonist was choline, a more particular embodiment choline applied at a sub-maximal concentration of 100 μM. In a further setting of the present invention the compounds to be tested were applied prior to the α7 nicotinic receptor agonist, in a particular embodiment up to 10 minutes prior to the agonist.
A control response to choline was calculated on each plate from the difference in peak in fluorescence in wells receiving either choline or assay buffer alone. Compounds of the present invention were tested at a concentration range from 0.01 μM to 30 μM. Compounds were considered to have an interesting activity when they potentiated the choline signal at least with 200% when tested at a concentration of 30 μM (the efficacy of 100 μM choline was defined as 100% in the absence of a PAM). An EC50 (or pEC50) was determined as a concentration relating to half the maximal effect, when a clear sigmoidal curve with top plateau was obtained.
Background: Calcium flux is commonly read through the fluorescence of an indicator in the cells.

The target in test [1] is T2, hα7-wt nAChR-expressing GH4C1 cells (Homo sapiens, UniProt P36544).
T2 construct: expressed in transfected cells
Put plainly: Patch-clamp current recording (whole-cell voltage clamp), potentiation of the choline current and PAM type. The class given is cell-based. On the set-up: key: Type 0 compounds minimally enhance the effect size of the current elicited by 1 mM choline.; Type 1 compounds enhance the effect size of the current elicited by 1 mM choline but minimally alter the kinetics of the receptor.; Type 2 compounds enhance the effect size of the current elicited by 1 mM choline while reducing the rate and/or the extent of desensitization.; Type 3 compounds enhance the effect size of the current elicited by 1 mM choline. When tested at higher concentrations up to 10 μM they completely inhibit desensitization, in particular a 1 mM choline application of 250 milliseconds.; Type 4 compounds allow for an initial desensitization of the receptor followed by a re-opening of the receptor during agonist application. The note with it: 1 mM choline. On the procedure: The compounds of the present invention are classified as type 1-4, based on qualitative kinetic properties, as determined by whole-cell voltage-clamp recordings. This classification is based on the effect of an α7 PAM compound, as described hereinbefore, on the signal elicited by an agonist application. In particular, said agonist is choline at a concentration of 1 mM. In a preferred experimental setting, said α7 PAM compound and choline are simultaneously applied to the cell, as described hereinafter. Desensitization is defined as the closure of the receptor upon activation during the application of the agonist in whole-cell voltage-clamp electrophysiology measurements seen as the reduction of the […] current after initial activation by the agonist.
The definition of the PAM types 1-4 is described hereinafter: • Type 0 compounds minimally enhance the effect size of the current elicited by 1 mM choline. • Type 1 compounds enhance the effect size of the current elicited by 1 mM choline but minimally alter the kinetics of the receptor. In particular, the rate and the extent of desensitization, elicited by the agonist, is not affected. The compound-modulated response to 1 mM choline, therefore, is a close to linear scaling of the 1 mM choline response in absence of the α7 PAM compound. • Type 2 compounds enhance the effect size of the current elicited by 1 mM choline while reducing the rate and/or the extent of desensitization. • Type 3 compounds enhance the effect size of the current elicited by 1 mM choline. […] At low-potency concentrations of the α7 PAM compound, the agonist-induced activation, which is followed by desensitization, can still be separated from the compound-induced re-opening as an initial inward current-maximum. At higher potency concentrations of the α7 PAM compound, the re-opening occurs faster than the closure due to desensitization so that the initial current-maximum disappears.
A compound was considered to have interesting PAM-like activity when the potentiation of the peak current was at least 200% compared to the control choline response (=100%). Such compounds are classified as belonging to a particular PAM type in the Experimental Part. Compounds not meeting the condition are not classified as belonging to a particular PAM-type.
The compounds also have a potentiating effect on the response to choline when measured by whole-cell patch clamp electrophysiology in GH4C1 cells stably over-expressing the human wild-type α7 receptor.
Patch-Clamp Current Recording
Patch-clamp recording from mammalian cells has provided a powerful means of assessing the function of membrane-bound proteins thought to be subunits of ligand-gated ion channels. Activation of such proteins by endogenous or exogenous ligands cause opening of a pore associated with the receptor through which ions flow down their electrochemical gradient. In the case of the hα7-wt nAChR-expressing GH4C1 recombinant cell line the preferential permeability to calcium of this receptor means that calcium flows into the cell upon activation by ACh, choline and other nicotinic ligands giving rise to a calcium current. Since this receptor rapidly desensitizes in the presence of agonist it is important an application system is used which is capable of very rapid switching of solutions (<100 ms) to prevent partial or full desensitisation of receptor responses coincident with the time of agonist application. Consequently, a second convenient technique to assess the enhancement of nicotinic efficacy is patch-clamp recording from hα7-wt nAChR-expressing GH4C1 cells coupled with a rapid-application system.
• The external recording solution consisted of 152 mM NaCl, 5 mM KCl, 1 mM MgCl2, 1 mM Calcium, 10 mM HEPES; pH 7.3. […]
Background: In patch-clamp work, channel activity is measured electrically.

T1 sequence (P36544 23-502): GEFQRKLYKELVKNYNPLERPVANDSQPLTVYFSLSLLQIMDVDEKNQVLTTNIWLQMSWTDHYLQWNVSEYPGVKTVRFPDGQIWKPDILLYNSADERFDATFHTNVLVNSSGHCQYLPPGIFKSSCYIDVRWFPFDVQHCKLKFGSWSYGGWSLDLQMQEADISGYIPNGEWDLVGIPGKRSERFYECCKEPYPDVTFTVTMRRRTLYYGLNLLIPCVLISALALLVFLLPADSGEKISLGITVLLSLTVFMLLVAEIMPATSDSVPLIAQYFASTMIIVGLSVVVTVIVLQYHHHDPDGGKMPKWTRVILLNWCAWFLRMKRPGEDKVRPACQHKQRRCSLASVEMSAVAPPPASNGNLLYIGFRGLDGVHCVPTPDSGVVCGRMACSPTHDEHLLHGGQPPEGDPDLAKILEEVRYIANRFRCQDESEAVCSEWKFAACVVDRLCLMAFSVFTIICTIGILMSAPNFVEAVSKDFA
T2 sequence (P36544 23-502): as above

What is called EC50 is the concentration giving half of the maximal effect. Take `Cc1cc(-c2cc(Nc3ccc4c(c3)OC(F)(F)O4)nn2CC(=O)NCC2CC2)ccn1` [compound 95]: on hα7-wt nAChR, the concentration for a half-maximal effect (EC50) is 234 nM. The PAM type in test [1] turned out to be 2.
For `Cc1cc(-c2cc(Nc3cccc(Cl)c3)nn2CC(=O)NCC2CC2)cc(C)n1` [compound 100] the same measures were 339 nM and 2.
Consider `Cc1cc(-c2cc(Nc3ccc(F)c(F)c3F)nn2CCC(=O)N(C)C)ccn1` [compound 166], for which, at hα7-wt nAChR, the concentration for a half-maximal effect (EC50) was 295 nM and the Emax worked out at 856%. In addition, the PAM type in test [1] was 2.
For `CCNC(=O)Cn1nc(Nc2cccc(C(F)(F)F)c2)cc1-c1cc(C)nc(C)c1` [compound 155], in that order: 550 nM, 576% and 2.
Regarding `CN(C)C(=O)CCn1nc(Nc2ccc(F)c(F)c2)cc1-c1cccnc1` [compound 19], the EC50 on hα7-wt nAChR is 4270 nM. Also, the PAM type in test [1] was found to be 2.
For `Cc1ccnc(-c2cc(Nc3ccc(F)c(F)c3)nn2CCC(=O)N(C)C)c1` [compound 22] the same measures were 2450 nM and 2.
On to `CN(C)C(=O)CCn1nc(Nc2ccc(F)c(F)c2)cc1-c1ccncc1` [compound 21], for which, on hα7-wt nAChR, the EC50 was 1230 nM. Moreover, the PAM type in test [1] is given as 3.
For `CCNc1cc(-c2cc(Nc3ccc(F)c(C(F)(F)F)c3)nn2C[C@@H](O)CC)cc(C)n1` [compound 68], in that order: 724 nM and 0.
As to `COc1cc(Nc2cc(-c3ccnc(C)c3)n(CC(=O)NC3CC3)n2)cc(C(F)(F)F)c1` [compound 104], the half-maximal effective concentration (EC50) at hα7-wt nAChR is 2690 nM. In addition, the PAM type in test [1] was 3.
For `Cc1ccc(-c2cc(Nc3ccc(F)c(C(F)(F)F)c3)nn2CCC(=O)N(C)C)cn1` [compound 28] the same measures were 776 nM and 4.
For `COc1ccc(-c2cc(Nc3ccc(F)c(F)c3)nn2CCC(=O)N(C)C)cc1` [compound 102], on hα7-wt nAChR, the EC50 was 77.6 nM. The PAM type in test [1] was determined as 4.
For `CCNC(=O)Cn1nc(Nc2cccc(Cl)c2)cc1-c1ccnc(C)c1` [compound 111], in that order: 1700 nM and 2.
In the case of `CNC(=O)Cn1nc(Nc2ccc(F)c(F)c2F)cc1-c1ccnc(C)c1` [compound 107], at hα7-wt nAChR, the EC50 is 1860 nM and the Emax was found to be 907%. For the same compound, in test [1], the PAM type is reported as 2.
Turning to `CNC(=O)Cn1nc(Nc2cccc(Cl)c2)cc1-c1cc(C)nc(C)c1` [compound 54], on hα7-wt nAChR, the EC50 is 977 nM. Further, the PAM type in test [1] came out at 2.
For `CCNC(=O)Cn1nc(Nc2cc(OC)cc(C(F)(F)F)c2)cc1-c1cc(C)nc(C)c1` [compound 140], in that order: 1000 nM and 2.
For `COc1cc(Nc2cc(-c3ccnc(C)c3)n(CCC(=O)N(C)C)n2)cc(C(F)(F)F)c1` [compound 143] the same measures were 575 nM and 4.
For `COCc1cc(-c2cc(Nc3cccc(Cl)c3)nn2CCC(=O)N(C)C)ccn1` [compound 149] the same measures were 437 nM and 4.
For the compound `Cc1cc(-c2cc(Nc3ccc4c(c3)OC(F)(F)O4)nn2CCC(=O)N(C)C)cc(C)n1` [compound 157], at hα7-wt nAChR, the EC50 was 363 nM and the Emax is 503%. For the same compound, the PAM type in test [1] was determined as 2.
Regarding `Cc1cnccc1-c1cc(Nc2ccc3c(c2)OC(F)(F)O3)nn1CCC(=O)N(C)C` [compound 90], the EC50 on hα7-wt nAChR is 912 nM. For the same compound, the PAM type in test [1] was 4.
As to `COc1cc(Cl)cc(Nc2cc(-c3ccnc(C)c3)n(CC(=O)NCC3CC3)n2)c1` [compound 132], the 50% effective concentration (EC50) on hα7-wt nAChR was 794 nM. For the same compound, the PAM type in test [1] was found to be 2.
For `CCOC(=O)Cn1nc(Nc2ccc(F)c(F)c2)cc1-c1ccc2c(c1)OCCO2` [compound 10, 3-[(3,4-difluorophenyl)amino]-5-(2,3-dihydro-1,4-benzodioxin-6-yl)-1H-pyrazole-1-acetic acid ethyl ester] the same measures were 245 nM and 2.
Consider `Cc1cc(-c2cc(Nc3cccc(Cl)c3)nn2CCC(=O)N(C)C)ccn1` [compound 146], for which the EC50 at hα7-wt nAChR is 447 nM. For the same compound, the PAM type in test [1] came to 2.
Turning to `Cc1cc(-c2cc(Nc3ccc(F)c(F)c3)nn2CC(=O)NCC2CC2)cc(C)n1` [compound 57], the EC50 on hα7-wt nAChR is 209 nM. Further, the PAM type in test [1] came to 2.
For `CC[C@H](O)Cn1nc(Nc2ccc(F)c(F)c2F)cc1-c1ccnc(COC)c1` [compound 121], in that order: 1070 nM and 2.
For `CCNc1cc(-c2cc(Nc3ccc(F)c(F)c3)nn2C[C@H](C)O)ccn1` [compound 62], in that order: 1320 nM and 1.
Turning to `COc1cccc(-c2cc(Nc3ccc(F)c(F)c3)nn2CCC(=O)N(C)C)c1` [compound 103], the EC50 on hα7-wt nAChR was 245 nM. Besides, the PAM type in test [1] amounted to 2.
For `Cc1cc(-c2cc(Nc3ccc(F)c(F)c3)nn2CCC(=O)N(C)C)ccn1` [compound 40] the same measures were 1000 nM and 2.
Consider `Cc1cc(-c2cc(Nc3ccc4c(c3)OC(F)(F)O4)nn2CC(=O)NC2CC2)cc(C)n1` [compound 145], for which, on hα7-wt nAChR, the 50% effective concentration (EC50) is 479 nM and the Emax turned out to be 736%. In addition, the PAM type in test [1] was found to be 2.
Turning to `Cc1cc(-c2cc(Nc3cc(F)c(F)c(F)c3)nn2CC(=O)NCC2CC2)ccn1` [compound 168], on hα7-wt nAChR, the EC50 was 263 nM and the Emax is 778%. For the same compound, the PAM type in test [1] is recorded as 2.
For `Cc1cc(-c2cc(Nc3cc(F)c(F)c(F)c3)nn2CCC(=O)N(C)C)ccn1` [compound 142] the same measures were 617 nM, 816% and 2.
